According to patent publication US7544814B2, “[3.2.0] Heterocyclic compounds and methods of using the same” (Nereus Pharmaceuticals, Inc., priority 2004, dated 2009):
“And” between values parts separate entries of the source, which are not always exact repeats. Equal values may be shown once. Read-outs that look alike come from different tables or passages of the source.

Assays:
PC-3 = assay: Cell growth inhibition (resazurin), PC-3; type: cell-based, human; settings: from EC50 values
MES-SA = assay: Cell growth inhibition (resazurin), MES-SA; type: cell-based, human; settings: for cytotoxic activity against MES-SA, in words: from EC50 values
MES-SA/Dx5 = assay: Cell growth inhibition (resazurin), multidrug resistant MES-SA/Dx5; type: cell-based, human; settings: from EC50 values
HL-60 = assay: Cell growth inhibition (resazurin), HL-60; type: cell-based, human; settings: for EC50: Table 4, 48 hours drug exposure; for cytotoxic activity against HL-60, in words: from EC50 values
HL-60/MX2 = assay: Cell growth inhibition (resazurin), multidrug resistant HL-60/MX2; settings: from EC50 values
Method: Concentrations ranging from 6.32 μM to 2 nM were tested for II-2 and II-4.
HL-60/MX2 is a multidrug resistant tumor cell line derived from the human promyelocytic leukemia cell line, HL-60 and expresses reduced topoisomerase II activity. […] Mitoxantrone, the topoisomerase II targeting agent was included as a control.

NF-κB = assay: NF-κB-mediated luciferase reporter gene assay, HEK293 NF-κB/Luc cells, TNF-α stimulation; type: cell-based, human; settings: for EC50: 1 hr pretreatment, TNF-α 6 hr; for effect on luciferase activity upon TNF-α stimulation, in words: pretreatment of NF-κB/Luc 293 cells
Method: The HEK293 NF-κB/luciferase reporter cell line is a derivative of the human embryonic kidney cell line (ATCC; CRL-1573) and carries a luciferase reporter gene under the regulation of 5× NF-κB binding sites. […] When performing the luciferase assay, the DMEM basal medium was replaced with phenol-red free DMEM basal medium and the G418 was omitted.
For NF-κB-mediated luciferase assays, HEK293 NF-κB/luciferase cells were seeded at 1.5×10^4 cells/well in 90 μl phenol-red free DMEM complete medium into Corning 3917 white opaque-bottom tissue culture plates. For Formula II-2, Formula II-4, Formula II-5A, and Formula II-18, a 400 μM starting dilution was made in 100% DMSO and this dilution was used to generate a 8-point half log dilution series. […] For Formula II-20, a 2.5 mM or 8 mM starting solution was made in 100% DMSO and the final test concentrations ranged from 6.3 μM to 2.0 nM or 20 μM to 6.3 nM, respectively. The plates were returned to the incubator for 1 hour. After 1 hr pretreatment, 10 μl of a 50 ng/ml TNF-α solution, prepared in the phenol-red free DMEM medium was added, and the plates were incubated for an additional 6 hr.
At the end of the TNF-α stimulation, 100 μl of Steady Lite HTS luciferase reagent (Packard Bioscience) was added to each well and the plates were left undisturbed for 10 min at room temperature before measuring the luciferase activity. The relative luciferase units (RLU) were measured by using a Fusion microplate fluorometer (Packard Bioscience).

U266 [1] = tested on: U266
B16-F10 [2] = tested on: B16-F10
U266 [3] = assay: Cell growth inhibition (resazurin), U266; settings: for EC50: 48 hours drug exposure
HT-29 = assay: Cell growth inhibition (resazurin), HT-29; settings: for cytotoxicity against HT-29, in words: from EC50 values
OVCAR-3 = assay: Cell growth inhibition (resazurin), OVCAR-3
B16-F10 [4] = assay: Cell growth inhibition (resazurin), B16-F10; settings: 48 hours drug exposure, mean ± SD where n≥3
NCI-H292 = assay: Cell growth inhibition (resazurin), NCI-H292; settings: from EC50 values
RPMI 8226 = assay: Cell growth inhibition (resazurin), RPMI 8226; settings: for EC50: 48 hours drug exposure; for cytotoxicity against RPMI 8226, in words: from EC50 values
MDA-MB-231 = assay: Cell growth inhibition (resazurin), MDA-MB-231; settings: for EC50: Homo sapiens, MDA-MB-231, 48 h, read-out: EC50 against MDA-MB-231; for cytotoxicity against MDA-MB-231, in words: from EC50 values
[5] = target: T1, caspase-like activity of purified rabbit muscle 20S proteasome (Oryctolagus cuniculus, UniProt A0A5F9DQW2); assay: In vitro inhibition of 20S proteasome caspase-like activity (Z-LLE-AMC)
T1 sequence (A0A5F9DQW2 1-212): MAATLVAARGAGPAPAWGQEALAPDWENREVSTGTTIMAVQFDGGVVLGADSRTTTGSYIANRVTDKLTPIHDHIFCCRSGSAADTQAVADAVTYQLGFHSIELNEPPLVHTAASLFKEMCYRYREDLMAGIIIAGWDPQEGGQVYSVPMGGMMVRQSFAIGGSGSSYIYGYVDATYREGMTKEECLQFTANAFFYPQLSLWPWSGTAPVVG

[6] = target: T2, trypsin-like activity of purified rabbit muscle 20S proteasome (Oryctolagus cuniculus, UniProt G1SWK8); assay: In vitro inhibition of 20S proteasome trypsin-like activity (Boc-LRR-AMC)
T2 sequence (G1SWK8 1-271): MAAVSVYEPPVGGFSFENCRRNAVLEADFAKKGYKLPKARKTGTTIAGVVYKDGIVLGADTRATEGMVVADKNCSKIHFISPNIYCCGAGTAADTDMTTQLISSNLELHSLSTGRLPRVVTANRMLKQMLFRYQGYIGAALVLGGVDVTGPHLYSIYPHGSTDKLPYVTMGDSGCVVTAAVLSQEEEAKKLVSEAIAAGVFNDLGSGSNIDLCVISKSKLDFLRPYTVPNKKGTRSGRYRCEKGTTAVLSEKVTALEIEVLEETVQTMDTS

[7] = target: T3, chymotrypsin-like activity of purified rabbit muscle 20S proteasome (Oryctolagus cuniculus, UniProt G1T4Q9); assay: In vitro inhibition of 20S proteasome chymotrypsin-like activity (suc-LLVY-AMC)
T3 sequence (G1T4Q9 1-263): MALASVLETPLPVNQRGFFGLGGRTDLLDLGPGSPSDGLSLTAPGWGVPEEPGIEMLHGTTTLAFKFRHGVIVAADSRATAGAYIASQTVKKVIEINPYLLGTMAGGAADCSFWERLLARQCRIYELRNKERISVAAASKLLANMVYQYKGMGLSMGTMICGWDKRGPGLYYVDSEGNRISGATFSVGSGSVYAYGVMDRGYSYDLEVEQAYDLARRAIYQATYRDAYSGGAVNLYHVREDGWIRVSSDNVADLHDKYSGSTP

[8] = target: T2, trypsin-like activity of purified rabbit muscle 20S proteasome; assay: biochemical
[9] = Homo sapiens, RPMI-8226, 48 h, read-out: RPMI 8226 EC50, Table 2, mean ± SD where n≥3
[10] = read-out: RPMI 8226 EC50, Table 2, mean ± SD where n≥3
[11] = EC50 values, chymotrypsin-like activity

SMILES	cytotoxicity against PC-3, in words (PC-3)	cytotoxic activity against MES-SA, in words (MES-SA)	EC50 (HL-60; Homo sapiens, HL-60, 48 h) [nM]	cytotoxic activity against HL-60, in words (HL-60)	cytotoxic activity against HL-60/MX2, in words (HL-60/MX2)	effect on luciferase activity upon TNF-α stimulation, in words (NF-κB)	cytotoxicity against B16-F10, in words (B16-F10 [2])	EC50 (U266 [3]; read-out: U266 EC50, Table 2) [nM]	cytotoxicity against HT-29, in words (HT-29)	cytotoxicity against NCI-H292, in words (NCI-H292)	EC50 (RPMI 8226; [9]) [nM]	cytotoxicity against RPMI 8226, in words (RPMI 8226)	EC50 (RPMI 8226; [10]) [nM]	EC50 (MDA-MB-231) [nM]	cytotoxicity against MDA-MB-231, in words (MDA-MB-231)	EC50 [7, 11] [nM]	further results
C[C@@]12OC(=O)[C@]1([C@@H](O)C1CCCCC1)NC(=O)[C@@H]2CCCl [Formula II-2]	cytotoxic	cytotoxic activity	237	retained cytotoxic activity	retained cytotoxic activity	dose-dependent decrease	cytotoxic	32	cytotoxic	cytotoxic	49	cytotoxic	45	121 ± 23	cytotoxic	13 to 88	cytotoxic activity against MES-SA/Dx5, in words (MES-SA/Dx5): cytotoxic activity; EC50 (HL-60): 176 nM; EC50 (NF-κB; Homo sapiens, HEK293, read-out: EC50, NF-κB-mediated luciferase reporter gene assay, Table 5, values in nM): 71 ± 20 nM; cytotoxicity against U266, in words (U266 [1]): cytotoxic; EC50 (U266 [3]; Homo sapiens, U-266, 48 h, read-out: U266 EC50, Table 2): 39 nM; EC50 (HT-29; Homo sapiens, HT-29, 48 h, read-out: EC50 against HT-29): 129 ± 21 nM; cytotoxicity against OVCAR-3, in words (OVCAR-3; from EC50 values): cytotoxic; EC50 (B16-F10 [4]; Mus musculus, B16-F10, 48 h, read-out: EC50 against B16-F10, Table 1): 194 nM; EC50 (B16-F10 [4]; read-out: EC50 against B16-F10, Table 1): 180 nM; EC50 (RPMI 8226; Homo sapiens, RPMI-8226, 48 h, read-out: EC50 against RPMI 8226, Table 1): 49 nM; EC50 ([5]; EC50 Caspase-like, Table 6, values in μM): 1.3 µM and 1.7 µM; EC50 ([5]; EC50 values, caspase-like activity, range in mixed units, summary of Table 6, range from nM to μM): 0.956 to 8.7 µM; inhibition of the trypsin-like activity of the 20S proteasome, in words ([6]; under the conditions tested): able to inhibit; EC50 ([7]; read-out: EC50 Chymotrypsin-like): 19 nM
C[C@@]12OC(=O)[C@]1([C@@H](O)C1CCCCC1)NC(=O)[C@@H]2CCBr [Formula II-4]	cytotoxic	cytotoxic activity	143	retained cytotoxic activity	retained cytotoxic activity	dose-dependent decrease	cytotoxic	34	cytotoxic	cytotoxic	57	cytotoxic	51	114 ± 4	cytotoxic	13 to 88	EC50 (MES-SA; Homo sapiens, MES-SA, 48 h, Table 3, 48 hours drug exposure): 140 nM; EC50 (NF-κB; Homo sapiens, HEK293, Table 5, values printed in nM, read-out: EC50, NF-κB-mediated luciferase reporter gene assay): 67 nM; EC50 (NF-κB; read-out: EC50, NF-κB-mediated luciferase reporter gene assay, Table 5, values in nM): 88 nM; EC50 [8]: 107 nM; cytotoxicity against U266, in words (U266 [3]; from EC50 values): cytotoxic; EC50 (OVCAR-3; Homo sapiens, OVCAR-3, 48 h, read-out: EC50 against OVCAR-3): > 6320 nM; EC50 ([5]; EC50 Caspase-like, Table 6, values in nM): 0.85 µM and 0.637 µM; EC50 ([5]; EC50 values, caspase-like activity, summary of Table 6): 0.213 to 0.85 µM; inhibition of the trypsin-like activity of the 20S proteasome, in words [6]: able to inhibit; EC50 ([6]; read-out: EC50 Trypsin-like): 110 nM; EC50 ([7]; EC50 Chymotrypsin-like, Table 6, values in nM): 13 nM
